Assay results: patent US20110319464A1, “METHODS FOR TREATING BENIGN PROSTATIC HYPERPLASIA” (KISSEI PHARMACEUTICAL CO., LTD., priority 2007, published 2011)
Where two headings read alike, the source gives them in different places.

Key:
[1] = test system: symptoms of BPH; assay: Study B: 4 mg Silodosin Twice Daily (KMD-303), Japanese Phase 3 Study; assay type: in vivo, human; conditions: 4 mg twice daily
Description: Safety was assessed by monitoring adverse events, clinical laboratory measurements, vital signs, and physical exams. […] In addition, the results for IPSS/AUASS for studies A, B, D and E are illustrated in FIGS. 3 to 6, respectively, and the results for Qmax for studies A, B, D and E are illustrated in FIGS. 7 to 10, respectively.

[2] = clinical; conditions: male, human
[3] = Pharmacokinetic Study on Silodosin (Study US011), once daily for seven days, fed state; conditions: for Cmax: Day 7, mean (SD)
[4] = Pharmacokinetic Study on Silodosin (Study 98364); assay type: in vivo; conditions: human, plasma, 4 mg; for concentration at 2 h: Day 7, 2 h; for concentration at 3 h: Day 7, 3 h; for concentration at 4 h: Day 7, 4 h; for concentration at 5 h: Day 7, 5 h; for concentration at 6 h: Day 7, 6 h; for concentration at 8 h: Day 7, 8 h; for concentration at 0 h: Day 7, 0 h (t0); for concentration at 0.5 h: Day 7, 0.5 h; for concentration at 1 h: Day 7, 1 h; for concentration at 12 h: Day 7, 12 h; for concentration at 24 h: Day 7, 24 h
Text: The remaining two subjects in each dosing cohort received placebo.

[5] = immediate-release dosage form once daily, steady state
[6] = 4 mg once daily 7 days, individual subjects, read-out: Blood Plasma Concentrations
[7] = male, 4 mg once daily 7 days, mean, read-out: Blood Plasma Concentrations
[8] = male, 4 mg twice daily 7 days (simulated from Table 1a), read-out: Estimated Blood Plasma Concentrations

C[C@H](Cc1cc2c(c(C(N)=O)c1)N(CCCO)CC2)NCCOc1ccccc1OCC(F)(F)F [Silodosin]
Incidence of Adverse Events: Dizziness [1]: 2.3 % of patients
Incidence of Adverse Events: Orthostatic Hypotension [1]: 3.4 % of patients
Incidence of Adverse Events: Syncope [1]: 0 % of patients
IPSS/AUASS baseline value ([1]; Week 0): 17.1
Maximum Flow Rate baseline value ([1]; Week 0): 9.89 mL/s
Mean Change From Baseline (CFB) in IPSS/AUASS ([1]; Week 1): −3.4
Mean Change From Baseline (CFB) in IPSS/AUASS ([1]; Week 2): −4.9
Mean Change From Baseline (CFB) in Maximum Flow Rate ([1]; Week 2): 2.23 mL/s
Mean Change From Baseline (CFB) in IPSS/AUASS ([1]; Week 4): −6.3
Mean Change From Baseline (CFB) in Maximum Flow Rate ([1]; Week 4): 2.18 mL/s
Mean Change From Baseline (CFB) in IPSS/AUASS ([1]; Week 8): −7.7
Mean Change From Baseline (CFB) in Maximum Flow Rate ([1]; Week 8): 2.38 mL/s
Mean Change From Baseline (CFB) in IPSS/AUASS ([1]; Week 12): −8.9
Mean Change From Baseline (CFB) in Maximum Flow Rate ([1]; Week 12): 2.33 mL/s
concentration at 12 h ([2]; in vivo, 8 mg): 9.45 ng/mL
Cmax ([2]; plasma, 4 mg): 27.6 ng/mL
Tmax ([2]; plasma, 4 mg): 2 h
concentration at 0.3 h ([2]; plasma, 4 mg): 0 ng/mL
concentration at 8 h ([2]; plasma, 4 mg): 4.83 ng/mL
concentration at 12.25 h ([2]; plasma, 4 mg): 1.8 ng/mL
concentration at 13 h ([2]; plasma, 4 mg): 9.77 ng/mL
concentration at 14 h ([2]; plasma, 4 mg): 31.5 ng/mL
concentration at 15 h ([2]; plasma, 4 mg): 32.5 ng/mL
concentration at 18 h ([2]; plasma, 4 mg): 7.89 ng/mL
concentration at 20 h ([2]; plasma, 4 mg): 5.93 ng/mL
half-life ([2]; plasma, 4 mg): 642 min
Cmax ([2]; plasma, 8 mg): 63.2 ng/mL
Tmax ([2]; plasma, 8 mg): 1.5 h
concentration at 145.5 h ([2]; plasma, 8 mg): 67.9 ng/mL
half-life ([2]; plasma, 8 mg): 672 min
concentration at 2 h ([2]; plasma, oral, 8 mg): 54.6 ng/mL
concentration at 3 h ([2]; plasma, oral, 8 mg): 42.8 ng/mL
concentration at 4 h ([2]; plasma, oral, 8 mg): 33.2 ng/mL
concentration at 6 h ([2]; plasma, oral, 8 mg): 18.5 ng/mL
AUC ([3]; 4 mg once daily, Day 1, mean): 169.0 ng/mL
Mean Tmax ([3]; 4 mg once daily, Day 7): 3.0 h
AUC ([3]; 4 mg once daily, Day 7, mean): 171 ng/mL
t ½ ([3]; 4 mg once daily, Day 7, mean): 12.5 h
Cmax ([3]; 4 mg once daily): 37.2 (18.7) ng/ml
AUC ([3]; 8 mg once daily, Day 1, mean): 413.0 ng/mL
AUC ([3]; 8 mg once daily, Day 7, mean): 396 ng/mL
t ½ ([3]; 8 mg once daily, Day 7, mean): 10.6 h
Cmax ([3]; 8 mg once daily): 73.4 (32.4) ng/ml
time after administration at which Cmax is reached [3, 5]: about 2 hours
time after administration at which plasma concentration falls to near baseline [3, 5]: about 12 hours
concentration at 2 h [4, 6]: 35.3 ng/mL
concentration at 3 h [4, 6]: 24.4 ng/mL
concentration at 4 h [4, 6]: 16.6 ng/mL
concentration at 5 h [4, 6]: 13.3 ng/mL
concentration at 6 h [4, 6]: 8.9 ng/mL
concentration at 8 h [4, 6]: 6.14 ng/mL
concentration at 0 h [4, 7]: 4.63 ng/mL
concentration at 0.5 h [4, 7]: 5.57 ng/mL
concentration at 1 h [4, 7]: 21.2 ng/mL
concentration at 2 h [4, 7]: 31.5 ng/mL
concentration at 3 h [4, 7]: 18.4 ng/mL
concentration at 4 h [4, 7]: 13 ng/mL
concentration at 5 h [4, 7]: 10.3 ng/mL
concentration at 6 h [4, 7]: 7.26 ng/mL
concentration at 8 h [4, 7]: 5.45 ng/mL
concentration at 12 h [4, 7]: 3.31 ng/mL
concentration at 24 h [4, 7]: 2.01 ng/mL
concentration at […] ([4]; male, 4 mg once daily 7 days, Day 7, […], mean, read-out: Blood Plasma Concentrations): 4.67 ng/mL
concentration at 0 h [4, 8]: 4.63 ng/mL
concentration at 0.5 h [4, 8]: 5.57 ng/mL
concentration at 1 h [4, 8]: 21.2 ng/mL
concentration at 2 h [4, 8]: 31.5 ng/mL
concentration at 3 h [4, 8]: 18.4 ng/mL
concentration at 4 h [4, 8]: 13 ng/mL
concentration at 5 h [4, 8]: 10.3 ng/mL
concentration at 6 h [4, 8]: 7.26 ng/mL
concentration at 8 h [4, 8]: 5.45 ng/mL
concentration at 12 h [4, 8]: 3.31 ng/mL
concentration at 12.25 h ([4]; male, 4 mg twice daily 7 days (simulated from Table 1a), Day 7, 12.25 h, read-out: Estimated Blood Plasma Concentrations): 4.67 ng/mL
concentration at 13 h ([4]; male, 4 mg twice daily 7 days (simulated from Table 1a), Day 7, 13 h, read-out: Estimated Blood Plasma Concentrations): 21.2 ng/mL
concentration at 14 h ([4]; male, 4 mg twice daily 7 days (simulated from Table 1a), Day 7, 14 h, read-out: Estimated Blood Plasma Concentrations): 31.5 ng/mL
concentration at 15 h ([4]; male, 4 mg twice daily 7 days (simulated from Table 1a), Day 7, 15 h, read-out: Estimated Blood Plasma Concentrations): 18.4 ng/mL
concentration at 16 h ([4]; male, 4 mg twice daily 7 days (simulated from Table 1a), Day 7, 16 h, read-out: Estimated Blood Plasma Concentrations): 13 ng/mL
concentration at 17 h ([4]; male, 4 mg twice daily 7 days (simulated from Table 1a), Day 7, 17 h, read-out: Estimated Blood Plasma Concentrations): 10.3 ng/mL
concentration at 18 h ([4]; male, 4 mg twice daily 7 days (simulated from Table 1a), Day 7, 18 h, read-out: Estimated Blood Plasma Concentrations): 4.63 ng/mL
concentration at 20 h ([4]; male, 4 mg twice daily 7 days (simulated from Table 1a), Day 7, 20 h, read-out: Estimated Blood Plasma Concentrations): 4.67 ng/mL
concentration at 24 h [4, 8]: 5.57 ng/mL
